Data reported in PMC8235661, “Photoelectric Dye, NK-5962, as a Potential Drug for Preventing Retinal Neurons from Apoptosis: Pharmacokinetic Studies Based on Review of the Evidence” (Life, 2021).

Tests used:
[1] = system: chick retinal cells including neurons and glial cells; assay: Cell viability assay using mixed culture of chick retinal neurons and glial cells (LIVE/DEAD stain); format: cell-based; settings: for percentage of dead cells in the exposure to light (mean): 2.78% in the absence of NK-5962
From the text: Egg shells (Fukuda Breeders Co., Ltd., Okayama, Japan) were disinfected with 70% alcohol and 12-day-old chick embryos were removed from a small opening. The eyes at this embryonic stage were used because the outer segments of the retinal photoreceptor cells had not yet been developed. The eyes were enucleated and cut at the midperiphery of the globe and the anterior halves were removed together with the vitreous. The neurosensory retina at this embryonic stage could easily be peeled off from the eye cup. After peeling, retinal tissues were incubated in 0.25% trypsin, 1 mM ethylenediaminetetraacetic acid (EDTA) in Ca^2+, and Mg^2+-free Hanks’ balanced salt solution (HBSS) to disperse retinal cells. After centrifugation, the retinal cells were washed with Dulbecco’s modified Eagle’s medium (DMEM) and seeded at a concentration of 3.5 × 10^5 cell/mL in poly-L-lysine-coated wells of a 96-well multidish containing DMEM supplemented with 10% fetal bovine serum (FBS), 100 mg/L streptomycin, and 100 mg/L ampicillin.
In order to determine the types of cells, either neurons or glial cells derived from neurosensory retinal tissues, retinal cells following 2-day culture were stained for neuron-specific enolase and glial fibrillary acidic protein by immunocytochemistry. The majority of retinal cells at day 2 of the culture were neurons mixed with a small number of glial cells (Figure 2).
Retinal cells at a concentration of 3.5 × 10^5 cell/mL in 220 μL of DMEM with 10% FBS were cultured together with 20 μL of varying concentrations of NK-5962 for 2 days either under protection from light or under light from a fluorescent lamp at 230 lux for 9 h daily. The final concentrations of NK-5962 in the solution were 1.6 × 10^−5, 1.6 × 10^−6, and 1.6 × 10^−7 M. Cells were then incubated for 15 min with SYTO 10 Green fluorescent nucleic acid stain and DEAD Red nucleic acid stain (LIVE/DEAD Reduced Biohazard Viability/Cytotoxicity Kit: Molecular Probes; Thermo Fisher Scientific, Waltham, MA, USA) in HEPES-buffered saline. After being fixed with 4% glutaraldehyde in HEPES-buffered saline, live cells and dead cells were visualized with a 100 W mercury lamp as a light source under a fluorescence inverted microscope through a set of FITC and PI filters (Olympus IX71; Olympus Life Sciences, Tokyo, Japan). Images in the center of each well were captured with a CCD camera and stored in a computer. Three wells were assigned to each condition of incubation in one series of experiments and the entire procedure was repeated three times on different days to obtain nine results for each condition. Green live cells (stained with SYTO 10 Green) and orange dead cells (stained with both SYTO10 Green and DEAD RED) in the images for each well were counted and the percentage of dead cells to the total cells was analyzed statistically (Figure 2).

[2] = Unbound fraction by equilibrium dialysis, rat plasma; format: in vitro ADME; settings: 1 μM, equilibrium dialysis 37 °C 4 h
Method: An equilibrium dialysis apparatus, Rapid Equilibrium Dialysis (RED) Device Single-Use Plate with Inserts, 8K MWCO (ThermoFisher Scientific, Waltham, MA, USA), was used to determine the unbound fraction for each compound in human plasma, rat plasma, and medium containing 10% fetal bovine serum (FBS). Plasma or medium was mixed with the test compound (1 μM) and 200 μL aliquots were loaded into the apparatus and dialyzed versus 350 μL of 100 mM phosphate buffer (pH 7.4) at 37 °C for 4 h by rotation at 1000 rpm. The unbound fraction was calculated as the ratio of receiver side (buffer) to donor side (plasma) concentrations.

[3] = Reactive oxygen species (ROS) assay under simulated sunlight; format: physicochemical
Method: The ROS assay was designed to detect both singlet oxygen and superoxide generated from photo-irradiated chemicals. Briefly, singlet oxygen was measured in aqueous solution by spectrophotometrically monitoring the bleaching of p-nitrosodimethylaniline at 440 nm using imidazole as a selective acceptor of singlet oxygen. Samples containing the tested chemical (20 or 200 μM), p-nitrosodimethylaniline (50 μM), and imidazole (50 μM) in 20 mM sodium phosphate buffer (pH 7.4) were mixed in a tube. Each sample in 200 μL was transferred into a well of a plastic 96-well plate (clear, untreated, and flat-bottomed) and checked for precipitation under a microscope with an objective lens (×100) before light exposure. The plate was subjected to a measurement of absorbance at 440 nm using a microplate spectrophotometer. The plate was fixed in the quartz reaction container with a quartz cover and then irradiated with the simulated sunlight (ultraviolet A/B and visible light, 250 W/m^2, Suntest CPS plus, Atlas Material Testing Technology, Mount Prospect, IL, USA) for 1 h. After agitation on a plate shaker, the UV absorbance at 440 nm was measured. For the determination of superoxide, samples containing the test chemical (20 or 200 μM) and nitroblue tetrazolium (50 μM) in 20 mM sodium phosphate buffer were irradiated with the simulated sunlight for 1 h and the reduction in nitroblue tetrazolium was measured by the increase in absorbance at 560 nm in the same manner as the singlet oxygen determination. Experiments were performed in triplicate wells in three independent runs. As the final concentration, 200 μM test chemical solutions should be subjected to the ROS assay. However, when precipitation could be observed at 200 μM under the optical microscope, additional experiments should be performed under appropriate dilution (20, 50, or 100 μM).

[4] = Repeated-dose systemic toxicity test; settings: in vivo
[5] = Tests for the biological evaluation of medical devices (ISO 10993); settings: data not shown
[6] = 0.16 μM NK-5962, exposure to light
[7] = 1.6 μM NK-5962, exposure to light
[8] = 16 μM NK-5962, exposure to light
[9] = 20 µM, simulated sunlight 1 h, mean ± standard deviation (n = 3)

Q: What does the source list for `CCCCN(CCCC)c1ccc(C=Cc2sc3ccccc3[n+]2CC(=O)O)cc1.[Br-]` [NK-5962, 2-[2-[4-(dibutylamino)phenyl]ethenyl]-3-carboxymethylbenzothiazolium bromide]?
A: rate of the percentage of dead cells compared with the absence of NK-5962 [1, 6]: 105%; percentage of dead cells in the exposure to light (mean) [1, 6]: 2.93%; rate of the percentage of dead cells compared with the absence of NK-5962 [1, 7]: 68%; percentage of dead cells in the exposure to light (mean) [1, 7]: 1.89%; rate of the percentage of dead cells compared with the absence of NK-5962 [1, 8]: 42%; percentage of dead cells in the exposure to light (mean) [1, 8]: 1.17%; IC50 ([1]; Gallus gallus, corrected with non-binding ratio 0.34 in 10% FBS, read-out: IC50 based on free form of NK-5962): 1700 nM; Protein-Binding (Non-Binding Ratio) Rat Plasma [2]: 0.022; Reactive Oxygen Species Generation Singlet oxygen [3, 9]: 93 ± 14 ΔA440 × 1000; Reactive Oxygen Species Generation Superoxide [3, 9]: Not detected; phototoxicity conclusion from ROS assay ([3]; low level of reactive oxygen species generation): less phototoxic; repeated-dose systemic toxicity test [4]: not toxic; toxicity in all tests for the biological evaluation of medical devices (ISO 10993) [5]: safe
